Measurements from PMC4914113, “Another look at the mechanism involving trimeric dUTPases in Staphylococcus aureus pathogenicity island induction involves novel players in the party” (Nucleic Acids Research, 2016).

Tests used:
[1] = target: Dut80α^WT, wild-type dUTPase of phage 80α (Staphylococcus aureus phage 80α); assay: crystal structure; Dut80α^WT with dUMP (5CCO) and Dut80α^G164S with dUPNPP-Mg (5CCT); space group P2_(1)3, one Dut molecule in the final model; trimers shown in Figure 3
[2] = target: Dut80α^G164S (Staphylococcus aureus phage 80α); assay: as above
Dut80α [3] = target: T1, Dut80α (Dubowvirus dv80alpha, UniProt A4ZF98); assay: biolayer interferometry, effect on Stl binding; conditions: 0.5 mM dUPNPP; SaPIbov1 Stl analyte; pH 7.5, 5 mM MgCl2; competes with Stl
T1 construct: His6-tagged from pET-28a, E. coli BL21(DE3); homotrimer; models cover residues 2-168 (dUMP) and 2-170 (G164S)

Dutϕ11 = target: T2, Dutϕ11 (Staphylococcus phage phi 11, UniProt Q8SDV3); assay: biolayer interferometry, effect on Stl binding; conditions: 0.5 mM dUPNPP; SaPIbov1 Stl analyte; pH 7.5, 5 mM MgCl2; competes with Stl
T2 construct: His6-tagged from pET-28a, E. coli BL21(DE3); trimeric Dut

Dut80α [4] = target: T1, Dut80α; assay: X-ray crystallography; assay type: binding; conditions: 2.33 Å; no nucleotide added to crystallisation; active site

Dut80α^WT, wild-type dUTPase of phage 80α (enzyme)
stoichiometry N [1]: 3

Dut80α^G164S (enzyme)
stoichiometry N [2]: 3

O=c1ccn([C@H]2C[C@H](O)[C@@H](COP(=O)(O)NP(=O)(O)OP(=O)(O)O)O2)c(=O)[nH]1 [dUPNPP, 2-Deoxyuridine-5-[(α,β)-imido]triphosphate]
biolayer interferometry, effect on Stl binding (Dut80α [3]): presence of the dUPNPP severely affects the formation of the Stl:Dut80α complex
biolayer interferometry, effect on Stl binding (Dutϕ11): dUPNPP decreased the affinity of the Stl:Dut80α complex by about one order

O=c1ccn([C@H]2C[C@H](O)[C@@H](COP(=O)(O)O)O2)c(=O)[nH]1 [dUMP]
X-ray crystallography (Dut80α [4]): structure of the Dut80α^WT bound to the dUMP showed that motif V was ordered
